Assay results from ChEMBL document CHEMBL1201862, “PubChem BioAssay data set” (2004).
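Growth conditions: 96-well plates. Treatment: test compound, 48 hours, 5 concentrations. Analysis: linear interpolation between bracketing concentrations; unreached endpoints set to highest concentration. GI50 = concentration required for 50% inhibition of growth.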 Active and inactive are the calls of the source. No stated cut-off is given here; in the data, active = GI50 up to about 1.1 µM and inactive = higher.

Assays:
Experiment in all cases: inhibition of tumour cell growth, NCI panel, 48 h
MCF7 = tested on: MCF7
NCI-H460 = tested on: NCI-H460
T47D = tested on: T47D
U-251 = tested on: U-251
OVCAR-3 = tested on: OVCAR-3
SN12C = tested on: SN12C
M14 = tested on: M14
OVCAR-5 = tested on: OVCAR-5
PC-3 = tested on: PC-3
OVCAR-4 = tested on: OVCAR-4
HCT-116 = tested on: HCT-116
OVCAR-8 = tested on: OVCAR-8
A498 = tested on: A498
NCI/ADR-RES = tested on: NCI/ADR-RES
COLO 205 = tested on: COLO 205
HOP-92 = tested on: HOP-92
LOX IMVI = tested on: LOX IMVI
CCRF-CEM = tested on: CCRF-CEM
SR = tested on: SR

| SMILES | GI50 (MCF7) | GI50 (NCI-H460) | GI50 (T47D) | GI50 (U-251) | GI50 (OVCAR-3) | GI50 (SN12C) | GI50 (M14) | GI50 (OVCAR-5) | GI50 (PC-3) | GI50 (OVCAR-4) | GI50 (HCT-116) | GI50 (OVCAR-8) | GI50 (A498) | GI50 (NCI/ADR-RES) | GI50 (COLO 205) | GI50 (HOP-92) | GI50 (LOX IMVI) | GI50 (CCRF-CEM) | GI50 (SR) |
| --- | --- | --- | --- | --- | --- | --- | --- | --- | --- | --- | --- | --- | --- | --- | --- | --- | --- | --- | --- |
| CCCCCCc1nn2c(-c3ccc(C)cc3)nnc2s1 | > 100 µM (inactive) | 80 µM (inactive) | 58.7 µM (inactive) | 32.6 µM (inactive) | > 100 µM (inactive) | > 100 µM (inactive) | > 100 µM (inactive) | > 100 µM (inactive) | 56.1 µM (inactive) | > 100 µM (inactive) | 49.2 µM (inactive) | 68.9 µM (inactive) | > 100 µM (inactive) | > 100 µM (inactive) | > 100 µM (inactive) | – | – | – | – |
| CC(=O)NC(=O)/N=C1\NCCC(=O)N1CCc1c[nH]c2ccccc12 | > 100 µM (inactive) | > 100 µM (inactive) | > 100 µM (inactive) | > 100 µM (inactive) | > 100 µM (inactive) | > 100 µM (inactive) | > 100 µM (inactive) | > 100 µM (inactive) | > 100 µM (inactive) | > 100 µM (inactive) | > 100 µM (inactive) | > 100 µM (inactive) | > 100 µM (inactive) | > 100 µM (inactive) | > 100 µM (inactive) | > 100 µM (inactive) | > 100 µM (inactive) | > 100 µM (inactive) | – |
| CCC1=NC(N/N=C/c2ccco2)=N/C1=C\c1ccco1 | – | 52 µM (inactive) | > 100 µM (inactive) | > 100 µM (inactive) | – | > 100 µM (inactive) | > 100 µM (inactive) | > 100 µM (inactive) | > 100 µM (inactive) | > 100 µM (inactive) | > 100 µM (inactive) | > 100 µM (inactive) | > 100 µM (inactive) | > 100 µM (inactive) | > 100 µM (inactive) | > 100 µM (inactive) | > 100 µM (inactive) | > 100 µM (inactive) | > 100 µM (inactive) |
| Oc1ccc2ccccc2c1OCc1nnc(CCCCCCCCc2nnc(COc3c(O)ccc4ccccc34)n2Nc2ccccc2)n1Nc1ccccc1 | 5.62 µM (inactive) | 2.7 µM (inactive) | 25.9 µM (inactive) | 19 µM (inactive) | 12.9 µM (inactive) | 35.7 µM (inactive) | 2.56 µM (inactive) | 2.51 µM (inactive) | 2.68 µM (inactive) | 10.7 µM (inactive) | 10.9 µM (inactive) | 20.9 µM (inactive) | 40.7 µM (inactive) | 8.2 µM (inactive) | 0.399 µM (active) | 17.2 µM (inactive) | – | – | – |
| CN(C)CC(NC(NCS)C(=O)NCCNc1ccc(NCCNC(=O)C(NCS)NC(CN(C)C)OCCl)c2c1C(=O)c1c(O)ccc(O)c1C2=O)OCCl (configuration not stated) | 0.01 µM (active) | < 0.001 µM (active) | 0.0327 µM (active) | 0.102 µM (active) | 0.387 µM (active) | 0.0311 µM (active) | 0.124 µM (active) | 0.525 µM (active) | 0.256 µM (active) | 0.502 µM (active) | 0.0249 µM (active) | 0.00377 µM (active) | 0.0635 µM (active) | 1.58 µM (inactive) | 1.34 µM (inactive) | – | 0.0245 µM (active) | – | – |
| COc1cccc(C=C2N=C(c3ccccc3)N(n3c(-c4ccccc4)nc4ccccc4c3=O)C2=O)c1 | 52 µM (inactive) | 35.2 µM (inactive) | 26.5 µM (inactive) | – | – | 57.8 µM (inactive) | 45.1 µM (inactive) | – | 41.2 µM (inactive) | – | 46 µM (inactive) | 44.5 µM (inactive) | 67.9 µM (inactive) | – | 54 µM (inactive) | – | 62.5 µM (inactive) | 38.7 µM (inactive) | 33.5 µM (inactive) |
| COc1cccc(N2C(=O)C3c4[nH]c5ccccc5c4C4c5ccccc5CCC4C3C2=O)c1 (configuration not stated) | > 10 µM (inactive) | 4.82 µM (inactive) | > 10 µM (inactive) | 3.82 µM (inactive) | 5.5 µM (inactive) | > 6.03 µM (inactive) | 4.92 µM (inactive) | > 10 µM (inactive) | > 6.7 µM (inactive) | 2.75 µM (inactive) | 4.34 µM (inactive) | 2.34 µM (inactive) | 2.77 µM (inactive) | 4.76 µM (inactive) | > 7.87 µM (inactive) | 6.15 µM (inactive) | > 10 µM (inactive) | > 10 µM (inactive) | – |
| Cc1cc2c(cc1Cl)SC(NNC1=NCCN1)=NS2(=O)=O | 0.00248 µM (active) | > 10 µM (inactive) | > 10 µM (inactive) | > 10 µM (inactive) | > 10 µM (inactive) | > 10 µM (inactive) | > 10 µM (inactive) | > 10 µM (inactive) | > 10 µM (inactive) | > 10 µM (inactive) | > 10 µM (inactive) | > 10 µM (inactive) | > 10 µM (inactive) | > 10 µM (inactive) | > 10 µM (inactive) | – | > 10 µM (inactive) | > 10 µM (inactive) | – |
| C1=CC2C(C3CN(c4ccccc4)N=C13)C1C3C4C=CC21C=CC43 (configuration not stated) | > 100 µM (inactive) | > 100 µM (inactive) | 0.189 µM (active) | > 100 µM (inactive) | > 100 µM (inactive) | > 100 µM (inactive) | > 100 µM (inactive) | > 100 µM (inactive) | > 100 µM (inactive) | > 78.5 µM (inactive) | > 100 µM (inactive) | > 95.3 µM (inactive) | > 100 µM (inactive) | > 100 µM (inactive) | > 100 µM (inactive) | 80 µM (inactive) | > 100 µM (inactive) | > 69.3 µM (inactive) | – |
| CC(C)=CC(C)C(C(O)CCC1(c2ccoc2)OCCO1)S(=O)(=O)c1ccccc1 (configuration not stated) | > 100 µM (inactive) | > 100 µM (inactive) | > 100 µM (inactive) | > 100 µM (inactive) | > 100 µM (inactive) | > 100 µM (inactive) | > 100 µM (inactive) | > 100 µM (inactive) | > 100 µM (inactive) | > 100 µM (inactive) | > 100 µM (inactive) | > 100 µM (inactive) | > 100 µM (inactive) | 91.6 µM (inactive) | > 100 µM (inactive) | – | > 100 µM (inactive) | > 100 µM (inactive) | – |
| COCn1cnc2c(=O)nc(SC)n(-c3ccccc3)c21 | > 100 µM (inactive) | – | > 100 µM (inactive) | – | > 100 µM (inactive) | > 100 µM (inactive) | > 100 µM (inactive) | > 100 µM (inactive) | – | > 100 µM (inactive) | > 100 µM (inactive) | > 100 µM (inactive) | > 100 µM (inactive) | > 100 µM (inactive) | > 100 µM (inactive) | > 100 µM (inactive) | > 100 µM (inactive) | > 100 µM (inactive) | – |
| COc1ccc(-c2nc(SCC(=O)NNC(=S)Nc3ccccc3)[nH]c2-c2ccc(OC)cc2)cc1 | 20.5 µM (inactive) | 14.8 µM (inactive) | 16.6 µM (inactive) | 17.5 µM (inactive) | 14.3 µM (inactive) | 21.8 µM (inactive) | 17.7 µM (inactive) | 23.7 µM (inactive) | 25.8 µM (inactive) | 33.5 µM (inactive) | 25.8 µM (inactive) | 39.9 µM (inactive) | 22.9 µM (inactive) | 74.5 µM (inactive) | 15.3 µM (inactive) | 20.8 µM (inactive) | 19.6 µM (inactive) | 22.7 µM (inactive) | – |
| CCC1(CCSC(=N)N)C(=O)NC(=O)NC1=O | > 100 µM (inactive) | > 100 µM (inactive) | – | > 100 µM (inactive) | > 100 µM (inactive) | > 100 µM (inactive) | > 100 µM (inactive) | > 100 µM (inactive) | > 100 µM (inactive) | > 100 µM (inactive) | > 100 µM (inactive) | > 100 µM (inactive) | > 100 µM (inactive) | > 100 µM (inactive) | > 100 µM (inactive) | > 100 µM (inactive) | > 100 µM (inactive) | > 100 µM (inactive) | > 100 µM (inactive) |
| CC(=O)N(CN1C(=O)CCC1C(=O)O)c1ccc(C)cc1 (configuration not stated) | > 100 µM (inactive) | > 100 µM (inactive) | > 100 µM (inactive) | > 100 µM (inactive) | > 100 µM (inactive) | > 100 µM (inactive) | > 100 µM (inactive) | > 100 µM (inactive) | > 100 µM (inactive) | > 100 µM (inactive) | > 100 µM (inactive) | > 100 µM (inactive) | > 100 µM (inactive) | > 100 µM (inactive) | > 100 µM (inactive) | > 100 µM (inactive) | > 100 µM (inactive) | > 100 µM (inactive) | – |
| CN1CCC2(CC1)/C(=N/C1CCCCC1)NC(=O)N2c1ccccc1 | > 100 µM (inactive) | > 100 µM (inactive) | > 100 µM (inactive) | > 100 µM (inactive) | – | > 100 µM (inactive) | > 100 µM (inactive) | > 100 µM (inactive) | – | – | > 100 µM (inactive) | > 100 µM (inactive) | > 100 µM (inactive) | > 100 µM (inactive) | > 100 µM (inactive) | 43.7 µM (inactive) | – | > 100 µM (inactive) | > 100 µM (inactive) |
| CC(C)c1ccccc1SC1CC(=O)CC(Sc2ccccc2C(C)C)C12O[C@H](c1ccccc1)[C@@H](c1ccccc1)O2 (some centres not stated) | 34 µM (inactive) | > 100 µM (inactive) | 28.6 µM (inactive) | 20.3 µM (inactive) | 32.2 µM (inactive) | 22.6 µM (inactive) | 21.5 µM (inactive) | > 100 µM (inactive) | 58.9 µM (inactive) | 61.9 µM (inactive) | 32.7 µM (inactive) | 35.4 µM (inactive) | > 100 µM (inactive) | 47 µM (inactive) | 71.6 µM (inactive) | 95.9 µM (inactive) | 30.1 µM (inactive) | 13.4 µM (inactive) | – |
